Source: US20230074885A1, “BORTEZOMIB-LOADED NANOPARTICLES” (The Johns Hopkins University, priority 2020, published 2023)

Columns and labels:
[1] = Dose escalation test on animal survival; type: in vivo, mice
Description: Dose escalation test on animal survival following local subcutaneous injection of the 1-month BTZ nanoparticle (BTZ NP) formulation in comparison with free BTZ injection via intratumor injection.
The recommended dose in patients is 1.3 mg/m^2. This dose is also the maximum tolerated dose in patients. […] One of the essential features of BTZ-NP is the ability to release active BTZ gradually. The ability of BTZ-NP to release BTZ slowly by subcutaneous injections was evaluated with increasing doses of BTZ-NP. As shown, a dose of 108 mg/m^2 could be injected without any death in rodents. This dose is approximately 80-fold higher than the dose of the free drug that is sufficient to kill rodents.

[2] = tested on: primary patient-derived cancer organoid (PDO) cultures from patients with liver cancers; experiment: FDA-approved cancer drugs tested across patient-derived cancer organoid (PDO) cultures; type: cell-based, human
Description: Thirty-seven primary patient-derived cancer organoid (PDO) cultures have been established from patients with liver cancers (including hepatocellular cancer and cholangiocarcinoma). Food and Drug Administration (FDA)-approved cancer drugs (irrespective of FDA indication) were tested across all 37 PDO cultures.

[3] = tested on: patient derived xenograft (PDX) model established from a human primary HCC; experiment: In vivo treatment of patient derived xenograft (PDX) mouse model of liver cancer; design: species or system NSG mice
Description: In vivo therapeutic effect of BTZ-loaded nanoparticles. The therapeutic effect of BTZ-loaded nanoparticles was assessed using patient derived xenograft (PDX) model. Briefly, fresh human tumor tissue was harvested from HCC patients, then cut in small pieces (3^3 mm^3) and implanted subcutaneously in the right flank of NSG mice. Once tumors grew, a similar process (harvesting tumors from mice, mincing and inserting in new mice) was implemented. Mice at the 5th passage of PDX were utilized in this experiment. After implantation subcutaneously, the tumor is allowed to grow to approximately 1,000 mm^3. Next, mice were randomized to blank nanoparticles and BTZ-loaded nanoparticles with an equivalence of 2.2 mg/kg BTZ. The tumor sizes of mice in different groups were measured through two weeks and were taken as the reflection of therapeutic effect of different formulations.

[4] = cited from earlier work

## CC(C)C[C@H](NC(=O)[C@H](Cc1ccccc1)NC(=O)c1cnccn1)B(O)O [free BTZ, bortezomib]
[1]; 1 mg/kg free BTZ, intra-tumor injection
  cause of death: liver failure
[1]; 1 mg/kg free BTZ, single intra-tumor injection, 12.5 μg/dose, 1.5 mg/m^2
  Survival: 0/5
[1]; intratumoral injection
  lethal dose in rodent model: 1.5 mg/m^2
[2]; 37 PDO cultures, hepatocellular cancer and cholangiocarcinoma
  effectiveness across PDO lines: highly effective across all tested PDO lines
[2]; across all 37 PDO lines
  effectiveness compared with currently approved FDA drugs for unresectable liver cancers: more effective than any of the currently approved FDA drugs
[3]; high dose 0.8 mg/kg free BTZ
  animal death due to toxicity: died 1 day after injection
[3]; mouse, in vivo
  efficacy in PDX model of liver cancer: effective
[4]
  recommended dose / maximum tolerated dose in patients: 1.3 mg/m^2
